In US8956999B2, “Herbicides” (Syngenta Limited, priority 2007, dated 2015):

Legend:
Format in all cases: in vivo
[1] = test system: Alopecurus myosuroides (ALOMY); assay: Example A pre-emergence herbicidal test, glasshouse; conditions: rate 250 g/ha, evaluated after 20 days, 100=total damage to plant, 0=no damage to plant
Description: (§1) Seeds of a variety of test species were sown in standard soil in pots. After cultivation for one day (pre-emergence) or after 10 days cultivation (post-emergence) under controlled conditions in a glasshouse, the plants were sprayed with an aqueous spray solution derived from the formulation of the technical active ingredient in 0.6 ml acetone and 45 ml formulation solution containing 10.6% Emulsogen EL (Registry number 61791-12-6), 42.2% N-methylpyrrolidone, 42.2% dipropylene glycol monomethyl ether (Registry number 34590-94-8) and 0.2% X-77 (Registry number 11097-66-8). The test plants were then grown in a greenhouse under optimum conditions until, 14 or 15 days later for post-emergence and 20 days for pre-emergence, the test was evaluated (100=total damage to plant; 0=no damage to plant). Test Plants: Alopecurus myosuroides (ALOMY), Avena fatua (AVEFA), Lolium perenne (LOLPE), Setaria faberi (SETFA), Digitaria sanguinalis (DIGSA), Echinochloa crus-galli (ECHCG)

Avena fatua (AVEFA) [2] = assay: as above; conditions: rate 250 g/ha, evaluated after 20 days, 100=total damage to plant, 0=no damage to plant
Description: as §1

[3] = test system: Digitaria sanguinalis (DIGSA); assay: as above; conditions: rate 250 g/ha, evaluated after 20 days, 100=total damage to plant, 0=no damage to plant
Description: as §1

[4] = test system: Echinochloa crus-galli (ECHCG); assay: as above; conditions: rate 250 g/ha, evaluated after 20 days, 100=total damage to plant, 0=no damage to plant
Description: as §1

Lolium perenne (LOLPE) [5] = assay: as above; conditions: rate 250 g/ha, evaluated after 20 days, 100=total damage to plant, 0=no damage to plant
Description: as §1

Setaria faberi (SETFA) [6] = assay: as above; conditions: rate 250 g/ha, evaluated after 20 days, 100=total damage to plant, 0=no damage to plant
Description: as §1

[7] = test system: Alopecurus myosuroides (ALOMY); assay: Example A post-emergence herbicidal test, glasshouse; conditions: rate 125 g/ha, evaluated 14 or 15 days later, 100=total damage to plant, 0=no damage to plant
Description: as §1

Avena fatua (AVEFA) [8] = assay: as above; conditions: rate 125 g/ha, evaluated 14 or 15 days later, 100=total damage to plant, 0=no damage to plant
Description: as §1

[9] = test system: Digitaria sanguinalis (DIGSA); assay: as above; conditions: rate 125 g/ha, evaluated 14 or 15 days later, 100=total damage to plant, 0=no damage to plant
Description: as §1

[10] = test system: Echinochloa crus-galli (ECHCG); assay: as above; conditions: rate 125 g/ha, evaluated 14 or 15 days later, 100=total damage to plant, 0=no damage to plant
Description: as §1

Lolium perenne (LOLPE) [11] = assay: as above; conditions: rate 125 g/ha, evaluated 14 or 15 days later, 100=total damage to plant, 0=no damage to plant
Description: as §1

Setaria faberi (SETFA) [12] = assay: as above; conditions: rate 125 g/ha, evaluated 14 or 15 days later, 100=total damage to plant, 0=no damage to plant
Description: as §1

[13] = test system: Alopecurus myosuroides (ALOMY); assay: Example B pre-emergence herbicidal test, glasshouse; conditions: 312 h, rate 1000 g/ha, evaluated after 13 days, 100=total damage to plant, 0=no damage to plant
In short: (§2)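 Glasshouse spray assay on soil-grown plants; application one day (pre-emergence) or 8 days (post-emergence) after sowing. Evaluation at 13 days, 0–100 damage score.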

[14] = test system: Amaranthus retoflexus (AMARE); assay: as above; conditions: Amaranthus retroflexus, 312 h, rate 1000 g/ha, evaluated after 13 days, 100=total damage to plant, 0=no damage to plant
In short: as §2

Avena fatua (AVEFA) [15] = assay: as above; conditions: 312 h, rate 1000 g/ha, evaluated after 13 days, 100=total damage to plant, 0=no damage to plant
In short: as §2

[16] = test system: Echinochloa crus-galli (ECHCG); assay: as above; conditions: rate 1000 g/ha, evaluated after 13 days, 100=total damage to plant, 0=no damage to plant
In short: as §2

Setaria faberi (SETFA) [17] = assay: as above; conditions: rate 1000 g/ha, evaluated after 13 days, 100=total damage to plant, 0=no damage to plant
In short: as §2

Solanum nigrum (SOLNI) [18] = assay: as above; conditions: rate 1000 g/ha, evaluated after 13 days, 100=total damage to plant, 0=no damage to plant
In short: as §2

[19] = test system: Alopecurus myosuroides (ALOMY); assay: Example B post-emergence herbicidal test, glasshouse; conditions: 312 h, rate 1000 g/ha, evaluated after 13 days, read-out: Post-Emergence Activity ALOMY (100=total damage to plant; 0=no damage to plant)
In short: as §2

[20] = test system: Amaranthus retoflexus (AMARE); assay: as above; conditions: Amaranthus retroflexus, 312 h, rate 1000 g/ha, evaluated after 13 days, read-out: Post-Emergence Activity AMARE (100=total damage to plant; 0=no damage to plant)
In short: as §2

Avena fatua (AVEFA) [21] = assay: as above; conditions: 312 h, rate 1000 g/ha, evaluated after 13 days, read-out: Post-Emergence Activity AVEFA (100=total damage to plant; 0=no damage to plant)
In short: as §2

[22] = test system: Echinochloa crus-galli (ECHCG); assay: as above; conditions: 312 h, rate 1000 g/ha, evaluated after 13 days, read-out: Post-Emergence Activity ECHCG (100=total damage to plant; 0=no damage to plant)
In short: as §2

Setaria faberi (SETFA) [23] = assay: as above; conditions: 312 h, rate 1000 g/ha, evaluated after 13 days, read-out: Post-Emergence Activity SETFA (100=total damage to plant; 0=no damage to plant)
In short: as §2

Solanum nigrum (SOLNI) [24] = assay: as above; conditions: 312 h, rate 1000 g/ha, evaluated after 13 days, read-out: Post-Emergence Activity SOLNI (100=total damage to plant; 0=no damage to plant)
In short: as §2

Row | SMILES | Pre-Emergence Activity ALOMY [1] | Pre-Emergence Activity AVEFA (Avena fatua (AVEFA) [2]) | Pre-Emergence Activity DIGSA [3] | Pre-Emergence Activity ECHCG [4] | Pre-Emergence Activity LOLPE (Lolium perenne (LOLPE) [5]) | Pre-Emergence Activity SETFA (Setaria faberi (SETFA) [6]) | Post-Emergence Activity ALOMY [7] | Post-Emergence Activity AVEFA (Avena fatua (AVEFA) [8]) | Post-Emergence Activity DIGSA [9] | Post-Emergence Activity ECHCG [10] | Post-Emergence Activity LOLPE (Lolium perenne (LOLPE) [11]) | Post-Emergence Activity SETFA (Setaria faberi (SETFA) [12]) | further results
1 | Cc1sc(-c2ccc(Cl)cc2)nc1C1C(=O)C(C)(C)OC(C)(C)C1=O [Compound T13] | 100 | 50 | 100 | 100 | 100 | 100 | 90 | 80 | 100 | 100 | 70 | 100 | 
2 | Cc1sc(-c2ccc(Cl)cc2)cc1C1C(=O)C(C)(C)OC(C)(C)C1=O [Compound T12] | 30 | 0 | 20 | 40 | 0 | 0 | 80 | 70 | 90 | 100 | 70 | 80 | 
3 | CCc1sc(-c2ccc(Cl)cc2)nc1C1=C(OC(=O)C(C)(C)C)C(C)(C)OC(C)(C)C1=O [Compound P2, 2,2-dimethylpropionic acid 4-[2-(4-chlorophenyl)-5-ethylthiazol-4-yl]-2,2,6,6-tetramethyl-5-oxo-5,6-dihydro-2H-pyran-3-yl ester] |  |  |  |  |  |  |  |  |  |  |  |  | pest or weed control at 1000 g/ha [13]: 60%; pest or weed control at 1000 g/ha [14]: 80%; pest or weed control at 1000 g/ha (Avena fatua (AVEFA) [15]): 30%; Pre-Emergence Activity ECHCG [16]: 50; Pre-Emergence Activity SETFA (Setaria faberi (SETFA) [17]): 80; Pre-Emergence Activity SOLNI (Solanum nigrum (SOLNI) [18]): 0; pest or weed control at 1000 g/ha [19]: 90%; pest or weed control at 1000 g/ha [20]: 0%; pest or weed control at 1000 g/ha (Avena fatua (AVEFA) [21]): 90%; pest or weed control at 1000 g/ha [22]: 100%; pest or weed control at 1000 g/ha (Setaria faberi (SETFA) [23]): 100%; pest or weed control at 1000 g/ha (Solanum nigrum (SOLNI) [24]): 0%
